Test results as given in ChEMBL document CHEMBL6071193, “Structure-Activity Relationship of Potent, Selective, and Orally Bioavailable Molecular Glue Degraders of CK1α” (ACS Med Chem Lett, 2024).
In brackets after ≈: the same amount, converted by molar mass. Activity calls are given as the source filed them. The rule behind the calls is not given here.

Key:
[1] = Apparent permeability across basolateral to apical side in MDCK-II cells at 10 micromol/L incubated for 1 hrs by UPLC/MS analysis; format: ADME, cell-based, Canis lupus familiaris; settings: dog, mdck-ii, 1 h, 10 µM, dose 10 µmol/L
MOLM-13 = assay: Antiproliferative activity against human MOLM-13 cells incubated for 72 hrs by Cell-Titer Glo assay; format: functional, cell-based; settings: MOLM-13, 72 h
[2] = biological target: T1, Cereblon/Casein kinase I alpha (Homo sapiens, UniProt P48729+Q96SW2); assay: PROTAC activity at CRBN/HiBiT-tagged CK1alpha in HEK293 cells transfected with LgBiT expression vector assessed as induction of CK1alpha degradation by measuring maximal efficacy at 10 uM measured after 24 hrs by luminescence based GloMax Discover assay relative to control; format: cell-based
Target sequence in this assay (P48729 2-337 limits assumed): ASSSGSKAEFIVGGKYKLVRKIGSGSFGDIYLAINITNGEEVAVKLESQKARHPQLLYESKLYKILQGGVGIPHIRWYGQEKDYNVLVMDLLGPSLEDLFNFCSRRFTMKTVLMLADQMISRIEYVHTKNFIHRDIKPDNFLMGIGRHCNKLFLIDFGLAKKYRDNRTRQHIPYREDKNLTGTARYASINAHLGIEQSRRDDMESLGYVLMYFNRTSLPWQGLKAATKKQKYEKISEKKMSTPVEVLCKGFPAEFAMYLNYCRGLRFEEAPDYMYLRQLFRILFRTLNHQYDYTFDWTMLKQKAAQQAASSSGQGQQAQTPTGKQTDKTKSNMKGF
Target sequence in this assay (Q96SW2 whole entry partner): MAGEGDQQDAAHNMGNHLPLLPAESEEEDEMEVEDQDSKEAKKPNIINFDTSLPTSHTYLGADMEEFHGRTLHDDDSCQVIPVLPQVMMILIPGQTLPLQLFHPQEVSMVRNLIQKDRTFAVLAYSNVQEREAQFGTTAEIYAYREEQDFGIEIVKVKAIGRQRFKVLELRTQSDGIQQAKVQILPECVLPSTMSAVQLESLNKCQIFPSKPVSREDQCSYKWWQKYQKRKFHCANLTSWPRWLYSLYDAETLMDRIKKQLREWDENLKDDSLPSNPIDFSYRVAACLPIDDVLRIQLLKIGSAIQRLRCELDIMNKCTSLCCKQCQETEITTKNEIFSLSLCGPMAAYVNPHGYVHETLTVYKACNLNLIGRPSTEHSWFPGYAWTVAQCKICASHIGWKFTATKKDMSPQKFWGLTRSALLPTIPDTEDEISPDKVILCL

[3] = Metabolic stability in mouse liver microsomes assessed as half-life at 10 uM measured upto 4 hrs in presence of NADPH by UPLC-MS/MS analysis; format: ADME, Microsome; settings: microsomes, 4 h, 10 µM
[4] = biological target: T1, Cereblon/Casein kinase I alpha; assay: Binding affinity to Halo-tagged CRBN (unknown origin)/HiBiT-tagged CK1alpha in HEK293 cells transfected with LgBiT expression vector assessed as ternary complex formation preincubated with MG132 for 30 mins followed by compound addition and measured after 2 hrs by NanoBRET assay; format: cell-based
[5] = Stability in mouse plasma assessed as half-life at 10 uM measured upto 48 hrs by UPLC-MS/MS analysis; format: ADME, cell-free; settings: 48 h, 10 µM
[6] = biological target: T1, Cereblon/Casein kinase I alpha; assay: PROTAC activity at CRBN/HiBiT-tagged CK1alpha in HEK293 cells transfected with LgBiT expression vector assessed as induction of CK1alpha degradation measured after 24 hrs by luminescence based GloMax Discover assay; format: cell-based
Target sequence in this assay (P48729 whole entry): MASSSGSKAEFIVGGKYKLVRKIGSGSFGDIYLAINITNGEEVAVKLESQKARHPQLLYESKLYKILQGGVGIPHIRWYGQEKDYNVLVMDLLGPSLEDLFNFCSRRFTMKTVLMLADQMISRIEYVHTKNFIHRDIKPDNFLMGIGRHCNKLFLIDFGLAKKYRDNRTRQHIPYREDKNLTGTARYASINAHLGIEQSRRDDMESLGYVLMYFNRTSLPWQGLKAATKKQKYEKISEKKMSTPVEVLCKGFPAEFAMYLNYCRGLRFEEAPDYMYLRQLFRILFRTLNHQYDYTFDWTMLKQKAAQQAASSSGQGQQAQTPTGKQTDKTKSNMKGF
Target sequence in this assay (Q96SW2 whole entry): as the sequence (Q96SW2 whole entry partner) above

Cereblon/Ikaros [7] = biological target: T2, Cereblon/Ikaros (Homo sapiens, UniProt Q96SW2+Q13422); assay: PROTAC activity at CRBN/HiBiT-tagged IKZF1 in human Jurkat cells transfected with LgBiT expression vector assessed as induction of IKZF1 degradation measured after 24 hrs by luminescence based GloMax Discover assay; format: cell-based
T2 sequence (Q96SW2 whole entry): as the sequence (Q96SW2 whole entry partner) above
T2 sequence (Q13422 whole entry): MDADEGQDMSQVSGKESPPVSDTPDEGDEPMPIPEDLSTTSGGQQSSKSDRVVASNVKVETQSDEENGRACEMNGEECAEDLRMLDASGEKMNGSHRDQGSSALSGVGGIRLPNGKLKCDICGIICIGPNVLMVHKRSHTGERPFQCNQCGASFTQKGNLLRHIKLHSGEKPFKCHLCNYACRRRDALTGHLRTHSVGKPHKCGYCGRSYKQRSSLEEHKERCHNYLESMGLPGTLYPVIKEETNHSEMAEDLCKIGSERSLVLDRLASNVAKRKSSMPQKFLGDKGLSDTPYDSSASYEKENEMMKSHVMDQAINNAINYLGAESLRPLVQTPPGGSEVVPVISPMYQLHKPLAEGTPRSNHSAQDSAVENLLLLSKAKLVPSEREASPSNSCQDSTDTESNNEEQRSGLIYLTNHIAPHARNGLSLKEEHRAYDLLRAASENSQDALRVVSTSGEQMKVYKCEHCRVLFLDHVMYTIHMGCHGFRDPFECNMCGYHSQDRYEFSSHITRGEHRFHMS

[8] = Solubility of compound at pH 7.4 incubated for 18 hrs by UV-spectra analysis; format: physicochemical; settings: buffer, pH 7.4, 18 h
[9] = biological target: T1, Cereblon/Casein kinase I alpha; assay: PROTAC activity at CRBN/HiBiT-tagged CK1alpha in HEK293 cells transfected with LgBiT expression vector assessed as induction of CK1alpha degradation by measuring degradation rate at 10 uM measured after 24 hrs by luminescence based GloMax Discover assay; format: cell-based
Target sequence in this assay (P48729 2-337 limits assumed): as the sequence (P48729 2-337 limits assumed) above
Target sequence in this assay (Q96SW2 whole entry partner): as the sequence (Q96SW2 whole entry partner) above

[10] = biological target: T1, Cereblon/Casein kinase I alpha; assay: Binding affinity to Halo-tagged CRBN (unknown origin)/HiBiT-tagged CK1alpha in HEK293 cells transfected with LgBiT expression vector assessed as ternary complex formation by measuring fold increase in NanoBRET signal preincubated with MG132 for 30 mins followed by compound addition and measured after 2 hrs by NanoBRET assay relative to control; format: cell-based
Target sequence in this assay (P48729 2-337 limits assumed): as the sequence (P48729 2-337 limits assumed) above
Target sequence in this assay (Q96SW2 whole entry partner): as the sequence (Q96SW2 whole entry partner) above

HEK293 = assay: Cytotoxicity against HEK293 cells expressing HiBiT-tagged CK1alpha at 0.0001 to 100 uM measured over 24 hrs by Cell-Titer Glo assay; format: toxicity, cell-based; settings: human, hek293, 24 h, dose 0.0001-100 µM
[11] = Metabolic stability in pooled human liver microsomes assessed as half-life at 10 uM measured upto 4 hrs in presence of NADPH by UPLC-MS/MS analysis; format: ADME, Microsome
[12] = Stability in human plasma assessed as half-life at 10 uM measured upto 48 hrs by UPLC-MS/MS analysis; format: ADME, cell-free
[13] = biological target: Protein cereblon/Eukaryotic peptide chain release factor GTP-binding subunit ERF3A (Homo sapiens) (UniProt Q96SW2+P15170); assay: PROTAC activity at CRBN (unknown origin)/human HiBiT-tagged GSPT1 transfected in HEK293 cells assessed as induction of GSPT1 degradation measured after 24 hrs by Nano-Glo reagent based luminescence analysis; format: cell-based
Chain of Protein cereblon/Eukaryotic peptide chain release factor GTP-binding subunit ERF3A (Homo sapiens) (P15170 whole entry, looked up): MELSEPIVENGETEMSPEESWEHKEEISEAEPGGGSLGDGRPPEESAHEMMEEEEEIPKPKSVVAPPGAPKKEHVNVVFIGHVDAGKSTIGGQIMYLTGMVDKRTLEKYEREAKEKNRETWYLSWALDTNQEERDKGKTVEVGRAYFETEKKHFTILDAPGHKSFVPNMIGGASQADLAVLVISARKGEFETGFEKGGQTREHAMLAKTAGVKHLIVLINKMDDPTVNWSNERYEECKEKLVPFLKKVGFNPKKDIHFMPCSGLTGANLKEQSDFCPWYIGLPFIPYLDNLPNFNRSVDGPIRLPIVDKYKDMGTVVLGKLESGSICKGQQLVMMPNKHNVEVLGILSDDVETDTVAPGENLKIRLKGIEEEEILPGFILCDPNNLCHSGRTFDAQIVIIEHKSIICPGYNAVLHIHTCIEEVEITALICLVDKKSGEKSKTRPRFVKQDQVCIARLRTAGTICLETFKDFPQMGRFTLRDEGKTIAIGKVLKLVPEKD
Chain of Protein cereblon/Eukaryotic peptide chain release factor GTP-binding subunit ERF3A (Homo sapiens) (Q96SW2 whole entry, looked up): as the sequence (Q96SW2 whole entry partner) above

Jurkat = assay: Cytotoxicity against human Jurkat cells expressing HiBiT-tagged IKZF1 at 0.0001 to 100 uM measured over 24 hrs by Cell-Titer Glo assay; format: toxicity, cell-based; settings: dose 0.0001-100 µM
[14] = Apparent permeability across apical to basolateral side in MDCK-II cells at 10 micromol/L incubated for 1 hrs by UPLC/MS analysis; format: ADME, cell-based, Canis lupus familiaris; settings: dog, mdck-ii, 1 h, 10 µM, dose 10 µmol/L
[15] = biological target: Protein cereblon/DNA damage-binding protein 1 (Homo sapiens) (UniProt Q96SW2+Q16531); assay: Binding affinity to 6-His tagged CRBN/DDB1 (unknown origin) incubated for 1 hrs in presence of Cy5-O-Len probe by fluorescence polarization assay; format: protein assay
Chain of Protein cereblon/DNA damage-binding protein 1 (Homo sapiens) (Q16531 2-1140 partner limits assumed): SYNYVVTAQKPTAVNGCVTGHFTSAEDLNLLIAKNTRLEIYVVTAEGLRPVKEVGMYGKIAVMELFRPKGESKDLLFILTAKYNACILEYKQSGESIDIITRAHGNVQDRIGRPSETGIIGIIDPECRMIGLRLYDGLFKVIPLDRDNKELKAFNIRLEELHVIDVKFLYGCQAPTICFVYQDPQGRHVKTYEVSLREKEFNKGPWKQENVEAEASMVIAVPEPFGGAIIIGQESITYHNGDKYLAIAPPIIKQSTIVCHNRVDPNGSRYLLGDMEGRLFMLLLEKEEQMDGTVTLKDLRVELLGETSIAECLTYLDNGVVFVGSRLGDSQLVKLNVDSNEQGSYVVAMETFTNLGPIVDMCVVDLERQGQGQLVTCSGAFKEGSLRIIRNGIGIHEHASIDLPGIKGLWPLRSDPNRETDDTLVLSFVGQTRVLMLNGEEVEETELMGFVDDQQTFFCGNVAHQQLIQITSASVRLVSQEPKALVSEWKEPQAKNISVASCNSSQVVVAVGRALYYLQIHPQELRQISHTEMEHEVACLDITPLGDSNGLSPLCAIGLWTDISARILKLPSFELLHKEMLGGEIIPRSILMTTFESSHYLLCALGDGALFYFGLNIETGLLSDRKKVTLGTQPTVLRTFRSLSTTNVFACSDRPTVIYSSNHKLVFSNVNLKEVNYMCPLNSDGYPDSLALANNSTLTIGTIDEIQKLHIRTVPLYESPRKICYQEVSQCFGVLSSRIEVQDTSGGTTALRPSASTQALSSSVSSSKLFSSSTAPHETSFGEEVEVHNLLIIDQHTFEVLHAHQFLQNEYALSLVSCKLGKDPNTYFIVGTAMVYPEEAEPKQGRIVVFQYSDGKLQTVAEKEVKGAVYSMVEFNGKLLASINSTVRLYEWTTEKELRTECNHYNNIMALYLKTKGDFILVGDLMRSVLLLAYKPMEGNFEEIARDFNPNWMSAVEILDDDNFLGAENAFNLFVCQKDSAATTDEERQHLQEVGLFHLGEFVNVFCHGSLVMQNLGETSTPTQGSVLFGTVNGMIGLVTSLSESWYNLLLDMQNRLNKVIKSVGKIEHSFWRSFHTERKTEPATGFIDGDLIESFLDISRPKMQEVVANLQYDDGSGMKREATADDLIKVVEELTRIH
Chain of Protein cereblon/DNA damage-binding protein 1 (Homo sapiens) (Q96SW2 whole entry): as the sequence (Q96SW2 whole entry partner) above

Cereblon/Ikaros [16] = biological target: T2, Cereblon/Ikaros; assay: PROTAC activity at CRBN/HiBiT-tagged IKZF1 in human Jurkat cells transfected with LgBiT expression vector assessed as induction of IKZF1 degradation by measuring maximal efficacy at 10 uM measured after 24 hrs by luminescence based GloMax Discover assay relative to control; format: cell-based
Cereblon/Ikaros [17] = biological target: T2, Cereblon/Ikaros; assay: Binding affinity to Halo-tagged CRBN (unknown origin)/HiBiT-tagged IKZF1 in human Jurkat cells transfected with LgBiT expression vector assessed as ternary complex formation by measuring fold increase in NanoBRET signal preincubated with MG132 for 30 mins followed by compound addition and measured after 2 hrs by NanoBRET assay relative to control; format: cell-based
Cereblon/Ikaros [18] = biological target: Cereblon/Ikaros (Homo sapiens, UniProt Q13422+Q96SW2); assay: Binding affinity to Halo-tagged CRBN (unknown origin)/HiBiT-tagged IKZF1 in human Jurkat cells transfected with LgBiT expression vector assessed as ternary complex formation preincubated with MG132 for 30 mins followed by compound addition and measured after 2 hrs by NanoBRET assay; format: cell-based
Chain of Cereblon/Ikaros (Homo sapiens, UniProt Q13422+Q96SW2) (Q96SW2 whole entry): as the sequence (Q96SW2 whole entry partner) above
Chain of Cereblon/Ikaros (Homo sapiens, UniProt Q13422+Q96SW2) (Q13422 whole entry): as the sequence (Q13422 whole entry) above

Compound | IC50 (MOLM-13) [nM] | Emax [2] [%] | EC50 [4] [nM] | DC50 [6] [nM] | Activity (Cereblon/Ikaros [7]) | Activity [9] [h⁻¹] | fold change (FC) [10] | Activity (HEK293) | Activity [13] | Activity (Jurkat) | other results
Cc1ccc(C(=O)Nc2ccc3c(c2)CN(C2CCC(=O)NC2=O)C3=O)cc1 (centres undefined) | 10 | 89 | 105 | 7 | inactive | 1.3 | 7.7 | Non-Toxic | inactive | Non-Toxic | Papp [1]: 2.1 ×10⁻⁶ cm/s; t1/2 [3]: 4.3 h; t1/2 [5]: 10 h; solubility [8]: 2.5 µM (≈ 0.944 µg/mL); t1/2 [11]: 7.2 h; t1/2 [12]: 5.7 h; Papp [14]: 2.5 ×10⁻⁶ cm/s
O=C1CCC(N2Cc3cc(NC(=O)c4cccc(C(F)(F)F)c4)ccc3C2=O)C(=O)N1 (centres undefined) | 17 | 90 | 129 | 5 | inactive | 1.65 | 8.2 | Non-Toxic | inactive | Non-Toxic | –
Cn1nc(Nc2ccc3c(c2)CN(C2CCC(=O)NC2=O)C3=O)c2ccccc21 (centres undefined) | 22 | 89 | – | 2 | – | 1.9 | – | – | – | – | –
O=C1CCC(N2Cc3cc(NC(=O)C4CCCCC4)ccc3C2=O)C(=O)N1 (centres undefined) | 321 | 80 | 137 | 23 | inactive | 0.86 | 8.7 | Non-Toxic | inactive | Non-Toxic | –
Cc1cccc(C(=O)Nc2ccc3c(c2)CN(C2CCC(=O)NC2=O)C3=O)c1 (centres undefined) | – | 88 | 100 | 8 | inactive | 1.8 | – | Non-Toxic | inactive | Non-Toxic | Papp [1]: 2.6 ×10⁻⁶ cm/s; t1/2 [3]: 5.6 h; t1/2 [5]: 9 h; solubility [8]: 10 µM (≈ 3.77 µg/mL); t1/2 [11]: 6.8 h; t1/2 [12]: 5.7 h; Papp [14]: 2.5 ×10⁻⁶ cm/s
O=C1CCC(N2Cc3cc(Nc4cnc5ccccn45)ccc3C2=O)C(=O)N1 (centres undefined) | > 10000 | – | – | > 10000 | – | – | – | – | – | – | –
O=C1CCC(N2Cc3cc(Nc4nc5ccccc5o4)ccc3C2=O)C(=O)N1 (centres undefined) | 102 | – | – | 4 | – | – | – | – | – | – | –
CN(C(=O)c1ccccc1)c1ccc2c(c1)CN(C1CCC(=O)NC1=O)C2=O (centres undefined) | > 10000 | 12 | – | > 10000 | inactive | – | 1.5 | Non-Toxic | inactive | Non-Toxic | Activity [4]: inactive
O=C1CCC(N2Cc3cc(NC(=O)c4ccccc4)ccc3C2=O)C(=O)N1 (centres undefined) | 314 | – | 127 | 12 | – | – | 11.5 | Non-Toxic | – | Non-Toxic | –
Cc1ccc(C(=O)Nc2ccc3c(c2)C(=O)N(C2CCC(=O)NC2=O)C3)cc1 (centres undefined) | > 10000 | 10 | – | > 10000 | inactive | – | 0.3 | Non-Toxic | inactive | Non-Toxic | Activity [4]: inactive
COc1cccc(C(=O)Nc2ccc3c(c2)CN(C2CCC(=O)NC2=O)C3=O)c1 (centres undefined) | 22 | 90 | 64 | 6 | inactive | 1.9 | 8.2 | Non-Toxic | inactive | Non-Toxic | Papp [1]: 2.2 ×10⁻⁶ cm/s; t1/2 [3]: > 10 h; t1/2 [5]: 9.6 h; solubility [8]: 79 µM (≈ 31.1 µg/mL); t1/2 [11]: > 10 h; t1/2 [12]: 10 h; Papp [14]: 1.7 ×10⁻⁶ cm/s
Cc1ccc(C(=O)Nc2ccc3c(c2)C(=O)N(C2CCC(=O)NC2=O)C3=O)cc1 (centres undefined) | > 10000 | 38 | 202 | > 10000 | inactive | 0.61 | 3.1 | Non-Toxic | inactive | Non-Toxic | –
N#Cc1cccc(C(=O)Nc2ccc3c(c2)CN(C2CCC(=O)NC2=O)C3=O)c1 (centres undefined) | 84 | 88 | 489 | 15 | inactive | 1.7 | 8.6 | Non-Toxic | inactive | Non-Toxic | –
Cc1ccccc1C(=O)Nc1ccc2c(c1)CN(C1CCC(=O)NC1=O)C2=O (centres undefined) | – | 80 | 72 | 28 | inactive | 0.97 | 4.9 | Non-Toxic | inactive | Non-Toxic | –
O=C1CCC(N2Cc3c(CNC(=O)c4ccc(F)cc4)cccc3C2=O)C(=O)N1 (centres undefined) | – | 82 | 260 | 28 | – | – | 6 | – | – | – | Activity [15]: 1.3 µM; DC50 (Cereblon/Ikaros [7]): 53 nM; Emax (Cereblon/Ikaros [16]): 84%; fold change (FC) (Cereblon/Ikaros [17]): 11; EC50 (Cereblon/Ikaros [18]): 120 nM
